For data set [1] the following is noted: cited from earlier work.
The conditions of data set [2]: glycerine; previous data confirmed by the test; cited from earlier work.
A short description of data set [3]: Solubility determination of selected folate salts in solvents. It is filed as physicochemical. The settings on record: mass-% (m/m), 20° C.; for Solubility in DMSO: solvent DMSO; for Solubility in EtOH: solvent EtOH; for Solubility in MeOH: solvent MeOH; for Solubility in Glycerine: solvent glycerine; for Solubility in i-PrOH: solvent i-PrOH; for Solubility in n-PrOH: solvent n-PrOH. As for the experimental part: Solubility determination of selected folate salts was in general performed as follows:
A quantity of the salt corresponding to the expected solubility (between 1-100 mg) was provided and mixed with increments of the respective solvent until a solution was formed.

In the case of “5-methyl-tetrahydrofolic acid glucosamine salt [5-MTHF-glucosamine]”, the “Solubility in dilute acid or dilute alkali” value in data set [1] (dilute acid or dilute alkali) is given as “soluble”. Further, in data set [1] (organic solvents), the “Solubility in organic solvents” value was “insoluble”. Further, the Solubility in water entry in data set [1] (water at 25° C.) is reported as “very soluble”.

Turning to `CN1c2c([nH]c(N)nc2=O)NC[C@@H]1CNc1ccc(C(=O)N[C@@H](CCC(=O)[O-])C(=O)[O-])cc1.[Ca+2]` [calcium salt of 5-methyl-(6S)-tetrahydrofolic acid], the “Solubility of calcium salt, previous data” value in data set [2] is “approximately 1%”.

As for “5-Formyl-(6S)-tetrahydrofolic acid di acetylcholine salt [FTHF di acetylcholine]”, in data set [3], the “Solubility in DMSO” value is listed as 0.25%, the “Solubility in EtOH” value is given as 55.80%, the “Solubility in MeOH” value is 55.80% and the “Solubility in Glycerine” value was determined as 24.10%. In data set [3], the “Solubility in i-PrOH” value is reported as 0.50% and the “Solubility in n-PrOH” value is recorded as 55.90%.

On to “5-Methyl-(6S)-tetrahydrofolic acid di acetylcholine salt [MTHF di acetylcholine]”, for which, in data set [3], the “Solubility in DMSO” value came to 47.62%, the “Solubility in EtOH” value is on record as 50.00%, the “Solubility in MeOH” value is reported as >>50% and the “Solubility in Glycerine” value was 24.10%. Moreover, in data set [3], the “Solubility in i-PrOH” value is recorded as 50.00% and the “Solubility in n-PrOH” value was found to be 50.00%.
